Source: ChEMBL document CHEMBL6134814, “Asiatic acid and its derivatives: Pharmacological insights and applications” (Eur J Med Chem, 2025)
Values belong to the compound of their own block, whether it stands above or below them.

Legend:
HT-29 [1] = experiment: Antiproliferative activity against human HT-29 cells assessed as reduction in cell viability incubated for 72 hrs by MTT assay; format: functional, cell-based; details: HT-29, 72 h
[2] = Cytotoxicity against human SPCA1 cells assessed as reduction in cell viability incubated fro 48 hrs by MTT assay; format: functional, cell-based; details: SPCA1, 48 h
HCT-116 [3] = experiment: Cytotoxicity against human HCT-116 cells assessed as reduction in cell viability incubated fro 48 hrs by MTT assay; format: functional, cell-based; details: HCT-116, 48 h
SK-OV-3 [4] = experiment: Cytotoxicity against human SK-OV-3 cells assessed as reduction in cell viability incubated fro 48 hrs by MTT assay; format: functional, cell-based; details: SK-OV-3, 48 h
B16-F10 = experiment: Anticancer activity against mouse B16-F10 cells assessed as reduction in cell growth incubated for 72 hrs by CCK-8 assay; format: functional, cell-based; details: B16-F10, 72 h
Jurkat = experiment: Antiproliferative activity against human Jurkat cells assessed as reduction in cell growth incubated for 72 hrs by XTT assay; format: functional, cell-based
A-375 [5] = experiment: Antiproliferative activity against human A-375 cells assessed as reduction in cell growth incubated for 72 hrs by MTT assay; format: functional, cell-based; details: A-375, 72 h
MIA PaCa-2 = experiment: Antiproliferative activity against human MIA PaCa-2 cells assessed as reduction in cell growth incubated for 72 hrs by MTT assay; format: functional, cell-based; details: MIA PaCa-2, 72 h
PC-3 = experiment: Antiproliferative activity against human PC-3 cells assessed as reduction in cell growth incubated for 72 hrs by MTT assay; format: functional, cell-based; details: PC-3, 72 h
Hepatocyte [6] = experiment: Hepatoprotective activity against CCl4-induced liver injury in male Wistar rat hepatocytes assessed as at 50 uM relative to control; format: functional
A549 = experiment: Antiproliferative activity against human A549 cells assessed as reduction in cell viability incubated for 72 hrs by CCK-8 assay; format: functional, cell-based; details: A549, 72 h
[7] = Antiproliferative activity against human PC9 Gefitinib-resistant (GR) cell assessed as reduction in cell viability incubated for 72 hrs by CCK-8 assay; format: functional, cell-based
SGC-7901 [8] = experiment: Antiproliferative activity against human SGC-7901 cells assessed as reduction in cell viability incubated for 48 hrs by MTT assay; format: functional, cell-based; details: SGC-7901, 48 h
HepG2 [9] = experiment: Antiproliferative activity against human HepG2 cells assessed as reduction in cell viability incubated for 48 hrs by MTT assay; format: functional, cell-based; details: HepG2, 48 h
Carbonic anhydrase 1 = Carbonic anhydrase 1 (Homo sapiens, UniProt P00915); experiment: Binding affinity to human carbonic anhydrase I assessed as inhibition constant
[10] = biological target: Carbonic anhydrase 5A, mitochondrial (Homo sapiens, UniProt P35218); experiment: Binding affinity to human carbonic anhydrase 5A assessed as inhibition constant
Carbonic anhydrase 9 = Carbonic anhydrase 9 (Homo sapiens, UniProt Q16790); experiment: Binding affinity to human carbonic anhydrase 9 assessed as inhibition constant
Carbonic anhydrase 2 = Carbonic anhydrase 2 (Homo sapiens, UniProt P00918); experiment: Binding affinity to human carbonic anhydrase 2 assessed as inhibition constant
Hepatocyte [11] = experiment: Hepatoprotective activity against glucosamine-induced liver injury in rat hepatocytes assessed as at 50 uM relative to control; format: functional
K562 = experiment: Cytotoxicity against human K562 cells assessed as reduction in cell viability incubated for 24 hrs by MTT assay; format: functional, cell-based; details: K562, 24 h
HeLa = experiment: Antiproliferative activity against human HeLa cells; format: functional, cell-based
HepG2 [12] = experiment: Antiproliferative activity against human HepG2 cells; format: functional, cell-based
BGC-823 = experiment: Antiproliferative activity against human BGC-823 cells; format: functional, cell-based
[13] = Inhibition of alpha-glucosidase (unknown origin); set-up: species or system Homo sapiens
HepG2 [14] = experiment: Antiproliferative activity against human HepG2 cells assessed as reduction in cell viability incubated for 72 hrs by MTT assay; format: functional, cell-based; details: HepG2, 72 h
SGC-7901 [15] = experiment: Antiproliferative activity against human SGC-7901 cells assessed as reduction in cell viability incubated for 72 hrs by MTT assay; format: functional, cell-based; details: SGC-7901, 72 h
A-375 [16] = experiment: Cytotoxicity against human A-375 cells assessed as reduction in cell growth incubated for 72 hrs by SRB assay; format: functional, cell-based; details: A-375, 72 h
HT-29 [17] = experiment: Cytotoxicity against human HT-29 cells assessed as reduction in cell growth incubated for 72 hrs by SRB assay; format: functional, cell-based; details: HT-29, 72 h
A2780 [18] = experiment: Cytotoxicity against human A2780 cells assessed as reduction in cell growth incubated for 72 hrs by SRB assay; format: functional, cell-based; details: A2780, 72 h
MCF7 [19] = experiment: Cytotoxicity against human MCF7 cells assessed as reduction in cell growth incubated for 72 hrs by SRB assay; format: functional, cell-based; details: MCF7, 72 h
A2780 [20] = experiment: Cytotoxicity against human A2780 cells assessed as reduction in cell growth incubated for 72 hrs by MTT assay; format: functional, cell-based; details: A2780, 72 h
HCT-116 [21] = experiment: Cytotoxicity against human HCT-116 cells assessed as reduction in cell growth incubated for 72 hrs by MTT assay; format: functional, cell-based; details: HCT-116, 72 h
MCF7 [22] = experiment: Cytotoxicity against human MCF7 cells assessed as reduction in cell growth incubated for 72 hrs by MTT assay; format: functional, cell-based; details: MCF7, 72 h
HL-60 = experiment: Cytotoxicity against human HL-60 cells assessed as reduction in cell growth incubated for 72 hrs by MTT assay; format: functional, cell-based; details: HL-60, 72 h
HepG2 [23] = experiment: Cytotoxicity against human HepG2 cells assessed as reduction in cell growth incubated for 72 hrs by MTT assay; format: functional, cell-based; details: HepG2, 72 h
SK-LU-1 = experiment: Cytotoxicity against human SK-LU-1 cells assessed as reduction in cell viability incubated for 48 hrs by MTT assay; format: functional, cell-based; details: SK-LU-1, 48 h
KB = experiment: Cytotoxicity against human KB cells assessed as reduction in cell viability incubated for 48 hrs by MTT assay; format: functional, cell-based
HepG2 [24] = experiment: Cytotoxicity against human HepG2 cells assessed as reduction in cell viability incubated for 48 hrs by MTT assay; format: functional, cell-based; details: HepG2, 48 h
OVCAR-3 = experiment: Anticancer activity against human OVCAR-3 cells assessed as reduction in cell growth at 40 microg/ml incubated for 72 hrs by MTT assay relative to control; format: functional; set-up: scale not given: the % may be the effect or the level left; details: dose 40 µg/ml
SK-OV-3 [25] = experiment: Anticancer activity against human SK-OV-3 cells assessed as reduction in cell growth at 40 microg/ml incubated for 72 hrs by MTT assay relative to control; format: functional; set-up: scale not given: the % may be the effect or the level left; details: dose 40 µg/ml

Chain of Carbonic anhydrase 5A, mitochondrial (P35218 whole entry): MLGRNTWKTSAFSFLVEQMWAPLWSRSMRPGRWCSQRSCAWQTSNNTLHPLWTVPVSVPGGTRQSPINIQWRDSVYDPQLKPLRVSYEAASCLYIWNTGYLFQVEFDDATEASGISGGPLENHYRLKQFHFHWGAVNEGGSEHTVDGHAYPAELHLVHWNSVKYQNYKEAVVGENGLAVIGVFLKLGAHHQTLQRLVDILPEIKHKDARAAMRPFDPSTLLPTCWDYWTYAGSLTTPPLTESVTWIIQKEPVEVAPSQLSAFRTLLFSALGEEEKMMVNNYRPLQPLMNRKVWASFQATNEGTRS
Chain of Carbonic anhydrase 1 (P00915 whole entry): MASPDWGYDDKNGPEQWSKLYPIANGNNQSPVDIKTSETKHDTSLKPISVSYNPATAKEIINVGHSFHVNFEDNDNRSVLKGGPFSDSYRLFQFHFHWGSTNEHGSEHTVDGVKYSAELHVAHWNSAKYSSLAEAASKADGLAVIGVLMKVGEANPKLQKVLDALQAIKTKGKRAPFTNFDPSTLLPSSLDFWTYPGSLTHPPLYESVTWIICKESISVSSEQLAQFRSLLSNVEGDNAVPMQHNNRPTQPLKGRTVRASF

- IC50 (HT-29 [1]): 4.12 µM
Structure (SMILES): CC(=O)OC[C@@]1(C)[C@@H]2CC[C@]3(C)[C@H](CC=C4[C@@H]5[C@@H](C)[C@H](C)CC[C@]5(C(=O)NO)CC[C@]43C)[C@@]2(C)C[C@@H](OC(C)=O)[C@@H]1OC(C)=O

Structure (SMILES): CCOP(=O)(OCC)C(NC(=O)[C@]12CC[C@@H](C)[C@H](C)[C@H]1C1=CC[C@@H]3[C@@]4(C)C[C@@H](OC(C)=O)[C@H](OC(C)=O)[C@@](C)(COC(C)=O)[C@@H]4CC[C@@]3(C)[C@]1(C)CC2)c1ccccc1Cl (stereo not given in full)
- IC50 [2]: 15 µM
- IC50 (HCT-116 [3]): 26.1 µM
- IC50 (SK-OV-3 [4]): 27.5 µM

- IC50 (B16-F10): 4.2 µM
Structure (SMILES): COC(=O)C1CCCN1C(=O)[C@]12CC[C@@H](C)[C@H](C)[C@H]1C1=CC[C@@H]3[C@@]4(C)C[C@@H](OC(C)=O)[C@H](OC(C)=O)[C@@](C)(COC(C)=O)[C@@H]4CC[C@@]3(C)[C@]1(C)CC2 (stereo not given in full)

- IC50 (Jurkat): 0.11 µM
- IC50 (A-375 [5]): 0.25 µM
- IC50 (MIA PaCa-2): 0.46 µM
- IC50 (PC-3): 0.42 µM
Structure (SMILES): COC(=O)[C@]12CC[C@@H](C)[C@H](C)[C@H]1C1=CC(=O)[C@@H]3[C@@]4(C)C(C=O)=C[C@@](C)(COS(C)(=O)=O)[C@@H]4CC[C@@]3(C)[C@]1(C)CC2

Structure (SMILES): C[C@H]1[C@H](C)CC[C@]2(C(=O)O)CC[C@]3(C)C(=CC[C@@H]4[C@@]5(C)CC[C@H](O)[C@@](C)(CO)[C@@H]5CC[C@]43C)[C@H]12
- Activity (Hepatocyte [6]): 58.3%

- IC50 (A549): 26 µM
Structure (SMILES): C[C@H]1[C@H](C)CC[C@]2(C(=O)O)CC[C@]3(C)C(=CC[C@@H]4[C@@]5(C)C[C@@H](OC(=O)CCC(=O)O)[C@@H]6OC(C)(C)OC[C@@]6(C)[C@@H]5CC[C@]43C)[C@H]12
- IC50 [7]: 25.6 µM

- IC50 (SGC-7901 [8]): 3.96 µM
- IC50 (HepG2 [9]): 4.18 µM
Structure (SMILES): COc1cccc(NC(=O)[C@]23CC[C@@H](C)[C@H](C)[C@H]2C2=CC[C@@H]4[C@@]5(C)CC6=NCCN=C6[C@@](C)(C=O)[C@@H]5CC[C@@]4(C)[C@]2(C)CC3)c1

- Ki (Carbonic anhydrase 1): 5.23 µM
- Ki [10]: 0.0362 µM
- Ki (Carbonic anhydrase 9): 0.0258 µM
- Ki (Carbonic anhydrase 2): 0.298 µM
Structure (SMILES): C[C@H]1[C@H](C)CC[C@]2(C(=O)Nc3ccccc3)CC[C@]3(C)C(=CC[C@@H]4[C@@]5(C)C[C@@H](OS(N)(=O)=O)[C@H](OS(N)(=O)=O)[C@@](C)(COS(N)(=O)=O)[C@@H]5CC[C@]43C)[C@H]12

Structure (SMILES): COC(=O)[C@]12CC[C@@H](C)[C@H](C)[C@H]1C1=CC[C@@H]3[C@@]4(C)C[C@@H](OC(C)=O)C(=O)[C@@](C)(CC(=O)O)[C@@H]4CC[C@@]3(C)[C@]1(C)CC2
- Activity (Hepatocyte [11]): 66.4%

Structure (SMILES): C[C@H]1[C@H](C)CC[C@]2(C(=O)OCc3ccccc3)CC[C@]3(C)C(=CC[C@@H]4[C@@]5(C)C[C@@H](O)[C@H](O)[C@@](C)(CO)[C@@H]5CC[C@]43C)[C@H]12
- IC50 (K562): 4.1 µM

- IC50 (HeLa): 4.78 µM
- IC50 (HepG2 [12]): 6.84 µM
- IC50 (BGC-823): 8.75 µM
Structure (SMILES): CC(=O)OC[C@@]1(C)[C@@H]2CC[C@]3(C)[C@H](C(=O)C=C4[C@@H]5[C@@H](C)[C@H](C)CC[C@]5(C(=O)OCCO)CC[C@]43C)[C@@]2(C)C[C@@H](OC(C)=O)[C@@H]1OC(C)=O

- IC50 [13]: 1190 µM
Structure (SMILES): CC(N)C(=O)N1CCN(C(=O)[C@]23CC[C@@H](C)[C@H](C)[C@H]2C2=CC[C@@H]4[C@@]5(C)C[C@@H](O)[C@H](O)[C@@](C)(CO)[C@@H]5CC[C@@]4(C)[C@]2(C)CC3)CC1 (stereo not given in full)

- IC50 (HepG2 [14]): 2.2 µM
- IC50 (SGC-7901 [15]): 3.2 µM
Structure (SMILES): CC(=O)OC[C@@]1(C)[C@@H]2CC[C@]3(C)[C@H](C(=O)C=C4[C@@H]5[C@@H](C)[C@H](C)CC[C@]5(C(=O)Nc5ccccc5CO)CC[C@]43C)[C@@]2(C)C[C@@H](OC(C)=O)[C@@H]1OC(C)=O

Structure (SMILES): CC(=O)O[C@@H]1C[C@@]2(C)[C@@H](CC[C@]3(C)[C@@H]2CC=C2[C@@H]4[C@@H](C)[C@H](C)CC[C@]4(C(=O)N4CCCN(C(=O)c5ccccc5-c5c6ccc(=[N+](CCO)CCO)cc-6oc6cc(N(CCO)CCO)ccc56)CCC4)CC[C@]23C)[C@](C)(OC(C)=O)[C@H]1OC(C)=O
- IC50 (A-375 [16]): 0.0074 µM
- IC50 (HT-29 [17]): 0.012 µM
- IC50 (A2780 [18]): 0.0019 µM
- IC50 (MCF7 [19]): 0.017 µM

Structure (SMILES): COC(=O)[C@@]1(C)[C@@H]2CC[C@]3(C)[C@H](CC=C4[C@@H]5[C@@H](C)[C@H](C)CC[C@]5(C(=O)Nc5ccccc5)CC[C@]43C)[C@@]2(C)C[C@@H](OC)[C@@H]1OC(C)=O
- IC50 (A2780 [20]): 1.28 µM
- IC50 (HCT-116 [21]): 1.08 µM
- IC50 (MCF7 [22]): 3.99 µM
- IC50 (HL-60): 0.48 µM
- IC50 (HepG2 [23]): 1.43 µM

Structure (SMILES): CCOC(=O)CNC(=O)[C@]12CC[C@@H](C)[C@H](C)[C@H]1C1=CC[C@@H]3[C@@]4(C)C[C@@H](OC(C)=O)[C@H](OC(C)=O)[C@@](C)(COC(C)=O)[C@@H]4CC[C@@]3(C)[C@]1(C)CC2
- IC50 (SK-LU-1): 1.39 µM
- IC50 (KB): 1.39 µM
- IC50 (HepG2 [24]): 1.99 µM

Structure (SMILES): C[C@H]1[C@H](C)CC[C@]2(C(=O)O)CC[C@]3(C)C(=CC[C@@H]4[C@@]5(C)C[C@@H](O)[C@H](O)[C@@](C)(CO)[C@@H]5CC[C@]43C)[C@H]12 [ASIATIC ACID]
- Activity (OVCAR-3): 50%
- Activity (SK-OV-3 [25]): 50%
